The values below come from article PMC3981466 (Bioorganic & medicinal chemistry letters, 2013).

Where two headings read alike, the source gives them in different places. Where only a bound is given, the exact number is not on record here.

One experiment concerns the target E. coli SPase (Escherichia coli, UniProt P00803). Kind of experiment: Biochemical activity.
In a further experiment the target is S. aureus SPase (Staphylococcus aureus, UniProt P0A070). Kind of experiment: Biochemical activity.
The test system of experiment [1] is S. aureus (MSSA) strain 8325. The conditions noted are these: wild type MSSA strain 8325; included for reference; cited from earlier work.
For experiment [2], the system named is methicillin resistant S. aureus (MRSA) strain USA300. The conditions noted are these: included for reference, cited from earlier work.
In a further experiment the test system is E. coli (MG1655). To be noted: wild type MG1655; included for reference; cited from earlier work.

Sequence of S. aureus SPase (P0A070 whole entry): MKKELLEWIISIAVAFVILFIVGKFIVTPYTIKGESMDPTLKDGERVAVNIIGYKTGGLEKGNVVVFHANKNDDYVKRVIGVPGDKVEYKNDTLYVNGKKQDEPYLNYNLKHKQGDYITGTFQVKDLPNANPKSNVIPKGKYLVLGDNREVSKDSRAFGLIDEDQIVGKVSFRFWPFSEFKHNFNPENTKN
Sequence of E. coli SPase (P00803 whole entry): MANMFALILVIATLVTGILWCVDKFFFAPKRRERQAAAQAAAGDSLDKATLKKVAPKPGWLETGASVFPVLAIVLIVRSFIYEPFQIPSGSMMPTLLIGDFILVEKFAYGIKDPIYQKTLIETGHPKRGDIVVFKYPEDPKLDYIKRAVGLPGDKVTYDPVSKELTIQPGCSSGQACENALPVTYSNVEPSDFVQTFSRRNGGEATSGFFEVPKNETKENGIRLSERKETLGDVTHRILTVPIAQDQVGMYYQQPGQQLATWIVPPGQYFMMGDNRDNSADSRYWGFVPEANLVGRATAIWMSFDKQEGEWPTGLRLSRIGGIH

`CCCCCCCCCCCCCCCC(=O)N(C)[C@H](CO)C(=O)N[C@H](C)C(=O)NCC(=O)N(C)[C@@H]1C(=O)N[C@@H](C)C(=O)N[C@H](C(=O)NCC=O)Cc2ccc(O)c(c2)-c2cc1ccc2OP(=O)(OCc1ccccc1)OCc1ccccc1` [Compound 8]: the “lower affinity on the glycyl aldehyde backbone” value at E. coli SPase (Hpg modification on glycyl aldehyde scaffold (of 5)) worked out at 15 fold.

Take `CCCCCCCCCCCCCCCC(=O)N(C)[C@H](CO)C(=O)N[C@H](C)C(=O)NCC(=O)N(C)[C@@H]1C(=O)N[C@@H](C)C(=O)N[C@H](CC(=O)NCC=O)Cc2ccc(O)c(c2)-c2cc1ccc2O` [Compound 6]: the “change of affinity/activity relative to parent, in words” value on E. coli SPase and on S. aureus SPase was “lost virtually all activity” throughout.

For `CCCCCCCCCCCCCCCC(=O)N(C)[C@H](CO)C(=O)N[C@H](C)C(=O)NCC(=O)N(C)[C@@H]1C(=O)N[C@@H](C)C(=O)N[C@H](C(=O)O)Cc2ccc(O)c(c2)-c2cc1ccc2OCCN` [Compound 9], the “IC50 difference relative to arylomycin A-C16” value on E. coli SPase and on S. aureus SPase was at most 2 fold throughout.

`CCCCCCCCCCCCCCCC(=O)N(C)[C@H](CO)C(=O)N[C@H](C)C(=O)NCC(=O)N(C)[C@@H]1C(=O)N[C@@H](C)C(=O)N[C@H](C(=O)NCP(=O)(Oc2ccccc2)Oc2ccccc2)Cc2ccc(O)c(c2)-c2cc1ccc2O` [Compound 4]: the “change of affinity/activity relative to parent, in words” value on E. coli SPase and at S. aureus SPase was “lost virtually all affinity” in each case.

With `CCCCCCCCCCCCCCCC(=O)N(C)[C@H](CO)C(=O)N[C@H](C)C(=O)NCC(=O)N(C)[C@@H]1C(=O)N[C@@H](C)C(=O)N[C@H](C(=O)O)Cc2ccc(O)c(c2)-c2cc1ccc2OP(=O)(O)O` [Compound 7], the “IC50 difference relative to arylomycin A-C16” value on E. coli SPase and against S. aureus SPase was at most 2 fold in each case.

As to `CCCCCCCCCCCCCCCC(=O)N(C)[C@H](CO)C(=O)N[C@H](C)C(=O)NCC(=O)N(C)[C@@H]1C(=O)N[C@@H](C)C(=O)N[C@H](C(=O)O)Cc2ccc(O)c(c2)-c2cc1ccc2OCCO` [Compound 11], the “IC50 difference relative to arylomycin A-C16” value on E. coli SPase and against S. aureus SPase was at most 2 fold throughout.

Take `CCCCCCCCCCCCCCCC(=O)N(C)[C@H](CO)C(=O)N[C@H](C)C(=O)NCC(=O)N(C)[C@@H]1C(=O)N[C@@H](C)C(=O)N[C@H](C(=O)NCP(=O)(O)O)Cc2ccc(O)c(c2)-c2cc1ccc2O` [Compound 1]: the “loss of activity relative to parent arylomycin A-C16” value at E. coli SPase and at S. aureus SPase was ~ 10 fold each time.

For the molecule `CCCCCCCCCCCCCCCC(=O)N(C)[C@H](CO)C(=O)N[C@H](C)C(=O)NCC(=O)N(C)[C@@H]1C(=O)N[C@@H](C)C(=O)N[C@H](C(=O)NCC=O)Cc2ccc(O)c(c2)-c2cc1ccc2O` [Compound 5], the “more potent than arylomycin A-C16” value at E. coli SPase came out at 5 fold; at S. aureus SPase, 40 fold.

With `CCCCCCCCCCCCCCCC(=O)N(C)[C@H](CO)C(=O)N[C@H](C)C(=O)NCC(=O)N(C)[C@@H]1C(=O)N[C@@H](C)C(=O)N[C@H](C(=O)O)Cc2ccc(O)c(c2)-c2cc1ccc2O` [arylomycin A-C16], in experiment [1], the “MIC S. aureus” value was over 64 µg/mL. Besides, the results for the “MIC MRSA” value in experiment [2] (listed as A-C16) and in experiment [2] were over 64 µg/mL and “no detectable activity”, respectively. Moreover, the “MIC E. coli” value in the experiment on E. coli (MG1655) is over 64 µg/mL.
